In US20070258926A1, “Composition containing retinoic acid nanoparticles coated with inorganic salt of polyvalent metal” (LTT BIO-PHARMA CO., LTD., priority 2003, published 2007):

Test system: hyaluronic acid
Conditions: topical application, mice
Procedure: The dorsal skin of mice (ddy strain/5 week old/male) was clipped with electric clippers and a Vaseline based retinoic acid preparation (containing 0.1% retinoic acid) was applied to the clipped area 10 mg/cm^2 per day for 4 consecutive days.

For CC1=C(/C=C/C(C)=C/C=C/C(C)=C/C(=O)O)C(C)(C)CCC1 [retinoic acid, all-trans retinoic acid], the “colloidal iron staining of basal cells and prickle cells of the epithelium (production of hyaluronic acid)” value was “less significant”.
